Test results reported in ChEMBL document CHEMBL6182898, “Design, synthesis and bioevaluation of novel hydrazide derivatives as enhancers of immunotherapy and DNA-damage response in antitumor therapy” (Eur J Med Chem, 2025).
The source made the active and inactive calls. The rule behind the calls is not given here.

Columns and labels:
[1] = Half life in male Sprague-Dawley rat at 2 mg/kg, iv measured for 0.083 to 12 hrs by LC-MS/MS analysis; format: ADME, organism-based; conditions: in vivo, time 0.083-12 hrs
[2] = system: 4T1; assay: cells; format: functional; conditions: Mus musculus, time 72 hrs
[3] = system: SK-OV-3; assay: Antiproliferative activity against human SK-OV-3 cells incubated for 72 hrs by MTT assay; format: functional, cell-based; conditions: SK-OV-3, 72 h
[4] = Tmax in male Sprague-Dawley rat at 20 mg/kg, po measured for 0.083 to 12 hrs by LC-MS/MS analysis; format: ADME, organism-based; conditions: in vivo, time 0.083-12 hrs
[5] = Half life in male Sprague-Dawley rat at 20 mg/kg, po measured for 0.083 to 12 hrs by LC-MS/MS analysis; format: ADME, organism-based; conditions: in vivo, time 0.083-12 hrs
[6] = system: 4T1; assay: Induction of DNA damage in mouse 4T1 cells assessed as increase in gamma-H2AX level at 5 uM by immunofluorescence based analysis; format: functional, cell-based
[7] = system: 4T1; assay: Induction of DNA damage in mouse 4T1 cells assessed as increase in gamma-H2AX level at 2 uM incubated for 24 hrs by Western blot analysis; format: functional, cell-based
[8] = system: B16-F10; assay: Induction of antitumor immunity in mouse B16-F10 cells assessed as increase in IFN-gamma level incubated for 24 hrs by Western blot analysis; format: functional, cell-based; conditions: dose 2.5-10 µM
[9] = system: 4T1; assay: Synergistic induction of DNA damage in mouse 4T1 cells implanted in mouse assessed as decrease in PARP level at 25 mg/kg/day in presence of olaparib by Western blot analysis; format: functional, organism-based
[10] = system: B16-F10; assay: Inhibition of cell invasion in mouse B16-F10 cells at 5 uM by transwell assay relative to control; format: functional
[11] = Antiproliferative activity against human HK-2 cells incubated for 72 hrs by MTT assay
[12] = biological target: T1, Protein deacetylase HDAC6 (Homo sapiens, UniProt Q9UBN7); assay: Inhibition of HDAC6 (unknown origin)
T1 sequence (Q9UBN7 whole entry): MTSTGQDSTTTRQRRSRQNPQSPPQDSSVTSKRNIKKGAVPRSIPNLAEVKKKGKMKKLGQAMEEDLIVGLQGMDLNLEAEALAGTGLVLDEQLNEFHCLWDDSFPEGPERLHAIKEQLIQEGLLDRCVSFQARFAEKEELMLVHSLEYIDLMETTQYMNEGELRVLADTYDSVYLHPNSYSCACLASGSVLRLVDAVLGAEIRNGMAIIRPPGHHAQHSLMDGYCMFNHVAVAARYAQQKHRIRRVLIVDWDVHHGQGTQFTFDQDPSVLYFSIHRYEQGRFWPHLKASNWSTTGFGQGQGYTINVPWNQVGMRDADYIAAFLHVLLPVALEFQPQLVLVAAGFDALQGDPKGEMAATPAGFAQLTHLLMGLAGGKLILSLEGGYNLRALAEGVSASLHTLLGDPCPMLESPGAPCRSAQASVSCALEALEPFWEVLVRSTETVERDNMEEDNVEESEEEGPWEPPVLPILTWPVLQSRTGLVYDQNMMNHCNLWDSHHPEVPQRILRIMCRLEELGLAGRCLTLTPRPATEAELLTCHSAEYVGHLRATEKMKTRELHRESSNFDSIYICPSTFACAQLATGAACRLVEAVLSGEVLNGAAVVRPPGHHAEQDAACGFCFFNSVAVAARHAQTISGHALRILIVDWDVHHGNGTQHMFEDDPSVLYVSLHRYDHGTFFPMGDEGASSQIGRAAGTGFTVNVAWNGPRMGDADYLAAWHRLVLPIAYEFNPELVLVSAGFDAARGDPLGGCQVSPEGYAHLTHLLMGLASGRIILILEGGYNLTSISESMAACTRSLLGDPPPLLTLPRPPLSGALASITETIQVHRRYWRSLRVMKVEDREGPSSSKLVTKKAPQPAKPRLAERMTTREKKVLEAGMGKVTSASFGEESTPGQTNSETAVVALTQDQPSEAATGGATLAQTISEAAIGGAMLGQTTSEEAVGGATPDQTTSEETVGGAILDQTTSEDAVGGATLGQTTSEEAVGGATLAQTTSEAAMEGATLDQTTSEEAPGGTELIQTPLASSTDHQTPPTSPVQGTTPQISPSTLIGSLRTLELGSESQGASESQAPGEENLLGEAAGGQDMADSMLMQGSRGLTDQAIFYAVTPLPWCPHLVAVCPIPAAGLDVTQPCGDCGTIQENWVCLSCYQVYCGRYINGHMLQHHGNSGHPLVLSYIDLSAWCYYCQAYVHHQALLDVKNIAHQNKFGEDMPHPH

[13] = system: B16-F10; assay: Induction of apoptosis in mouse B16-F10 cells assessed as late-stage apoptosis at 2.5 uM incubated for 48 hrs by Annexin V-FITC/PI staining based flow cytometry relative to control; format: functional
[14] = system: B16-F10; assay: Induction of antitumor immunity in mouse B16-F10 cells implanted in male C57BL/6J mouse assessed as increase in T cell infiltration at 25 mg/kg, IG treated for 14 days consecutively in presence of NP-19 by immunofluorescence based analysis; format: functional, organism-based; conditions: time 14.0 day
[15] = system: B16-F10; assay: cells; format: functional; conditions: Mus musculus, time 72 hrs
[16] = Oral bioavailability in male Sprague-Dawley rat at 20 mg/kg measured for 0.083 to 12 hrs by LC-MS/MS analysis; format: ADME, organism-based; conditions: in vivo, time 0.083-12 hrs
[17] = Toxicity in male C57BL/6J mouse implanted with mouse B16-F10 cells assessed as histopathological damage in heart at 50 mg/kg, IG treated for 14 days consecutively by H and E staining based analysis; format: organism-based; conditions: in vivo, po, 336 h, time 14 day
[18] = biological target: T2, Histone deacetylase 3 (Mus musculus) (UniProt O88895); assay: Inhibition of HDAC3 in mouse B16-F10 cells assessed as increase in Ac-H3K56 level at 2.5 to 10 uM incubated for 24 hrs by Western blot analysis; format: cell-based; conditions: dose 2.5-10 µM
T2 sequence (whole entry): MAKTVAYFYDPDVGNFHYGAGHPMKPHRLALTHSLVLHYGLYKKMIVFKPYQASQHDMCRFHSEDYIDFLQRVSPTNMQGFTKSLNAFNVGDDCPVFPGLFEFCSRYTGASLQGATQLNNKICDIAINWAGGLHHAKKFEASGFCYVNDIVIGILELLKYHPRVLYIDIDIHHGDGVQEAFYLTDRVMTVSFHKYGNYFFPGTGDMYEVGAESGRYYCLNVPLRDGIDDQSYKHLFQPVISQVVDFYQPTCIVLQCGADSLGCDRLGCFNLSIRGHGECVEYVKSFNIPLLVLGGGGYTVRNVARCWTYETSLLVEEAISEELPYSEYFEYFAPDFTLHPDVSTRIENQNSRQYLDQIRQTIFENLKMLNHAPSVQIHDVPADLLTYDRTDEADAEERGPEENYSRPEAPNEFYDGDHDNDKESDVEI

[19] = system: B16-F10; assay: Induction of apoptosis in mouse B16-F10 cells assessed as late-stage apoptosis at 10 uM incubated for 48 hrs by Annexin V-FITC/PI staining based flow cytometry relative to control; format: functional
[20] = system: B16-F10; assay: Induction of apoptosis in mouse B16-F10 cells assessed as late-stage apoptosis at 5 uM incubated for 48 hrs by Annexin V-FITC/PI staining based flow cytometry relative to control; format: functional

half-life [1] [h]	IC50 [3] [µM]	Tmax [4] [h]	half-life [5] [h]	IC50 [12] [µM]	bioavailability [16] [%]	inhibition [18]	Structure (SMILES)	inhibition at 10 µM [2] [%]	Activity [6]	Activity [7]	Activity [8]	Activity [9]	inhibition at 5 µM [10] [%]	IC50 at 72 h [11] [µM]	Activity [13] [%]	Activity [14]	inhibition at 10 µM [15] [%]	Activity [17]	Activity [19] [%]	Activity [20] [%]
2.21	5.76	0.72	2.84	> 10	0.49	Active	CCCNNC(=O)CCCCCCNC(=O)c1cnc(-c2ccc(NC(=O)OC(C)(C)C)cc2)s1	33.1	Active	Active	Dose-dependent-effect; Activity Was Similar To Ms-275	Active	> 70	11.5	20.6	Active	60.7	Non-toxic	51.5	43.5
–	8.37	–	–	> 10	–	Active	CCCNNC(=O)c1ccc(NC(=O)c2cnc(-c3ccc(OC(F)(F)F)cc3)s2)cc1	32.8	–	–	Dose-dependent-effect; Activity Was Similar To Ms-275	–	> 70	10.9	24	–	54.7	–	55.3	45.8
